Experimental data taken from patent US4155930A, “Ureylene phenylene anionic naphthalenesulfonic acids” (American Cyanamid Company, priority 1978, dated 1979).
Counter-ions that a name gives are not always drawn.

Test system: shunt pathway
Experiment: Test Code 036 (C-Shunt inhibitor), lysis of fragile human erythrocytes in autologous serum, cobra venom factor activated
Assay type: biochemical
Parameters: key: N=Negative (no activity)
Conditions: serial two-fold dilution assay; higher well number indicates higher activity; N = negative
From the text: An active inhibitor protects C2 from C1 and C4; (ii) Test Code 035 (C3-C9 inhibitor)--This test determines the ability of the late components of human complement (C3-C9) to lyse EAC 142 in the presence of appropriate dilutions of the test compound. An active inhibitor products EAC 142 from lysis by human C3-C9; (iii) Test Code 036 (C-Shunt inhibitor)--In this test human erythrocytes rendered fragile are lysed in autologous serum via the shunt pathway activated by cobra venom factor in the presence of appropriate dilutions of the test compound. Inhibition of the shunt pathway results in failure of lysis; (iv) Forssman Vasculitis Test--Here, the well known complement dependent lesion, Forssman vasculitis, is produced in guinea pigs by intradermal injection of rabbit anti-Forssman antiserum. The lesion is measured in terms of diameter, edema and hemorrhage and the extent to which a combined index of these is inhibited by prior intraperitoneal injection of the test compound at 200 mg/kg is then reported, unless otherwise stated; (v) Forssman Shock Test--Lethal shock is produced in guinea pigs by an i.v. injection of anti-Forssman antiserum and the harmonic mean death time of treated guinea pigs is compared with that of simultaneous controls; (vi) Complement Level Reduction Test--In this test, the above dosed guinea pigs, or others, are bled for serum and the complement level is determined in undiluted serum by the capillary tube method of U.S. Pat. No. 3,876,376 and compared to undosed control guinea pigs; and (vii) Cap 50 Test--Here, appropriate amounts of the test compound are added to a pool of guinea pig serum in vitro, after which the undiluted serum capillary tube assay referred to above is run. The concentration of compound inhibiting 50% is reported.

SMILES	Shunt Inhibition 036* Wells
Cc1ccc(S(=O)(=O)Nc2ccc(S(=O)(=O)[O-])c3cc(S(=O)(=O)[O-])cc(S(=O)(=O)[O-])c23)cc1NS(=O)(=O)c1cccc(NC(=O)Nc2cccc(S(=O)(=O)Nc3cc(S(=O)(=O)Nc4ccc(S(=O)(=O)[O-])c5cc(S(=O)(=O)[O-])cc(S(=O)(=O)[O-])c45)ccc3C)c2)c1.[Na+].[Na+].[Na+].[Na+].[Na+].[Na+] [8,8'-[Ureylenebis[(m-phenylenesulfonylimino)(4-methyl-3,1-phenylenesulfonyl)imino]]di-1,3,5-naphthalenetrisulfonic acid, hexasodium salt]	N
Cc1ccc(NC(=O)Nc2ccc(C)c(S(=O)(=O)Nc3ccc(C)c(S(=O)(=O)Nc4cc(S(=O)(=O)[O-])cc5cc(S(=O)(=O)[O-])cc(S(=O)(=O)[O-])c45)c3)c2)cc1S(=O)(=O)Nc1ccc(C)c(S(=O)(=O)Nc2cc(S(=O)(=O)[O-])cc3cc(S(=O)(=O)[O-])cc(S(=O)(=O)[O-])c23)c1.[Na+].[Na+].[Na+].[Na+].[Na+].[Na+] [8,8'-[Ureylenebis[[[(6-methyl-3,1-phenylene)sulfonyl]imino]-[[(6-methyl-3,1-phenylene)sulfonyl]imino]]]di-1,3,6-naphthalenetrisulfonic acid, hexasodium salt]	N
O=C(Nc1cccc(S(=O)(=O)Nc2cccc(S(=O)(=O)Nc3cc(S(=O)(=O)O)cc4cc(S(=O)(=O)O)cc(S(=O)(=O)O)c34)c2)c1)Nc1cccc(S(=O)(=O)Nc2cccc(S(=O)(=O)Nc3cc(S(=O)(=O)O)cc4cc(S(=O)(=O)O)cc(S(=O)(=O)O)c34)c2)c1 [8,8'-[Ureylenebis[[(1,3-phenylenesulfonylimino)-1,3-phenylenesulfonyl]imino]]di-1,3,6-naphthalenetrisulfonic acid, hexasodium salt]	+1 Wells
